Reference: paper PMC7014678 (International Journal of Molecular Sciences, 2020)
pKi: −log10 of the molar value. Like-named read-outs stand apart in the source and are kept apart here.

Columns and labels:
BpsCA-γ = target: T1, BpsCA-γ; type: biochemical, Burkholderia pseudomallei
T1 construct: gene BpsCA-gamma

VchCA-β [1] = target: T2, VchCA-β (Vibrio cholerae, UniProt A0A086SLX8); assay: biochemical
T2 construct: gene can

VchCA-α [2] = target: T3, VchCA-α (Vibrio cholerae, UniProt Q9KMP6); assay: biochemical
T3 construct: gene VC_A0274
T3 sequence (Q9KMP6 21-239 limits assumed): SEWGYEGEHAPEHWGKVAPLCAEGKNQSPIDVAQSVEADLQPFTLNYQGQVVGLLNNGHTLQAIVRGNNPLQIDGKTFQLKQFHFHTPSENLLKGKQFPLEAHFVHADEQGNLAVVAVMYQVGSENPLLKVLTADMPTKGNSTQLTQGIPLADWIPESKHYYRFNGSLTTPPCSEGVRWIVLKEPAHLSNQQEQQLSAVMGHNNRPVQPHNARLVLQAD

Rv3273-β [3] = target: T4, Rv3273-β (Mycobacterium tuberculosis, UniProt P96878); assay: biochemical
T4 sequence (P96878 540-764 limits assumed): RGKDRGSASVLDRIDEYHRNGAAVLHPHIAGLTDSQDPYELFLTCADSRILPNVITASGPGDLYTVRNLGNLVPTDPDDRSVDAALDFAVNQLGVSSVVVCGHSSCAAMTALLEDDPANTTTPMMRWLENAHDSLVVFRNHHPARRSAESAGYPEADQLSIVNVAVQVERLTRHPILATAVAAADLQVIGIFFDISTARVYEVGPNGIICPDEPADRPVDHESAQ

BpsCA-β [4] = target: T5, BpsCA-β (Burkholderia pseudomallei, UniProt Q63Y17); assay: biochemical
T5 construct: gene BPSL0372
T5 sequence (Q63Y17 1-256): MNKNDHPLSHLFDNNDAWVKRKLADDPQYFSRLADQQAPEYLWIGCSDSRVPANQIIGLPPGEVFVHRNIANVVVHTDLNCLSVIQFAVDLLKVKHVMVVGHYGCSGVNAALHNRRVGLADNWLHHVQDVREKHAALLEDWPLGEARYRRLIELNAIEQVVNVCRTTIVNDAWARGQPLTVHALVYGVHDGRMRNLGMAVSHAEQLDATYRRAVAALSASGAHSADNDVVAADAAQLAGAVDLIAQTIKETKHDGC

Rv3273-β [5] = target: T4, Rv3273-β; assay: biochemical; remark: listed apart in the source
StCA2-β = target: T6, StCA2-β; assay: stopped-flow CO2 hydration assay; type: biochemical, Salmonella enterica subsp. enterica serovar Typhimurium; details: CO2 1.7-17 mM; pH 8.3 TRIS; 20 mM Na2SO4; 15 min preincubation, room temperature
T6 construct: recombinant, obtained in-house; construct not described

VchCA-α [6] = target: T3, VchCA-α; assay: biochemical; remark: listed apart in the source
VchCA-β [7] = target: T2, VchCA-β; assay: biochemical; remark: listed apart in the source
BpsCA-β [8] = target: T5, BpsCA-β; assay: biochemical; remark: listed apart in the source

T2 sequence (A0A086SLX8 1-222): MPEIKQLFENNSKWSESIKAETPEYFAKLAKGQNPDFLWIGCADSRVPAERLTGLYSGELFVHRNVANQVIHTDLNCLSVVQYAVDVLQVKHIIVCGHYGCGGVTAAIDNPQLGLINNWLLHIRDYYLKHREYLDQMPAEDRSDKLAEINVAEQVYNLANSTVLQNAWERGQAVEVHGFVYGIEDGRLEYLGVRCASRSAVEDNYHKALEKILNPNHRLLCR

SMILES	pKi (VchCA-β [1])	pKi (VchCA-α [2])	pKi (BpsCA-β [4])	pKi (Rv3273-β [5])	pKi (StCA2-β)	pKi (VchCA-α [6])	pKi (VchCA-β [7])	also measured
CC(O)CSCC(=O)Nc1ccc(S(N)(=O)=O)cc1 (stereo not drawn) [3e]	5.18	7.35	< 5.00	–	–	–	–	pKi (BpsCA-γ): 6.49; pKi (Rv3273-β [3]): 6.67
NS(=O)(=O)c1ccc(C[Se]c2ccc(NC(=O)CSc3ccc(Br)cc3)cc2)cc1 [5b]	6.24	7.34	< 5.00	< 5.00	8.09	–	–	–
NS(=O)(=O)c1ccc(NC(=O)C[Se]c2ccccc2)cc1 [7a]	–	–	–	–	–	8.66	7.02	pKi (BpsCA-γ; CO2 1.7-17 mM, buffer pH for γ-CA not stated, 20 mM Na2SO4, 15 min preincubation, room temperature): 6.52; pKi (BpsCA-β [8]): 5.39; pKi (Rv3273-β [3]): 6.69
Cc1ccc([Se]CC(=O)Nc2ccc(S(N)(=O)=O)cc2)cc1 [7b]	6.12	8.11	< 5.00	6.55	–	–	–	–
Cc1ccccc1[Se]CC(=O)Nc1ccc(S(N)(=O)=O)cc1 [7c]	–	–	–	–	–	–	–	pKi (Rv3273-β [5]; read-out: Rv3273-β, inhibitor): < 5.00; pKi (VchCA-β [1]; read-out: VchCA-β, inhibitor): 5.21; pKi (VchCA-α [2]; read-out: VchCA-α, inhibitor): 7.38; pKi (BpsCA-β [4]; read-out: BpsCA-β, inhibitor): < 5.00
NS(=O)(=O)c1ccc(CCNC(=O)C[Se]c2ccccc2)cc1 [8a]	5.18	7.35	< 5.00	5.82	–	–	–	–
COc1ccc([Se]CC(=O)NCCc2ccc(S(N)(=O)=O)cc2)cc1 [8c]	–	–	< 5.00	< 5.00	–	8.49	7.07	–
Cc1ccc(S(=O)(=O)N[C@H](C[Se]CC(=O)NCCc2ccc(S(N)(=O)=O)cc2)C(C)C)cc1 [8d]	6.08	7.21	< 5.00	< 5.00	–	–	–	–
C=C(C)[C@H]1CCC(C)(O)C([Se]CC(=O)NCCc2ccc(S(N)(=O)=O)cc2)C1 (stereo partly drawn) [8e]	6.51	–	< 5.00	< 5.00	8.05	8.21	–	–
COc1ccc([Se]CC(=O)Nc2ccc([Se]Cc3ccc(S(N)(=O)=O)cc3)cc2)cc1 [9d]	–	8.05	< 5.00	< 5.00	8.12	–	7.08	–
